According to US20250066363A1, “Bicyclic DGK Inhibitors” (Incyte Corporation, priority 2023, published 2025):

Columns and labels:
DGKα = DGKα (Homo sapiens (Human), UniProt P23743); test: In vitro DGKα inhibition assay (ADP-Glo); assay type: biochemical; conditions: first column of Table A; His-tagged human recombinant DGKα 0.1 nM, 50 μM ATP, 20 μM DLG
DGKζ = DGKζ (Homo sapiens (Human), UniProt Q13574); test: In vitro DGKζ inhibition assay (ADP-Glo); assay type: biochemical; conditions: second column of Table A, head printed DGKα, presumably DGKζ; His-tagged human recombinant DGKζ 0.4 nM, 30 μM ATP, 20 μM DLG
DGKζ, sequence (Q13574 whole entry): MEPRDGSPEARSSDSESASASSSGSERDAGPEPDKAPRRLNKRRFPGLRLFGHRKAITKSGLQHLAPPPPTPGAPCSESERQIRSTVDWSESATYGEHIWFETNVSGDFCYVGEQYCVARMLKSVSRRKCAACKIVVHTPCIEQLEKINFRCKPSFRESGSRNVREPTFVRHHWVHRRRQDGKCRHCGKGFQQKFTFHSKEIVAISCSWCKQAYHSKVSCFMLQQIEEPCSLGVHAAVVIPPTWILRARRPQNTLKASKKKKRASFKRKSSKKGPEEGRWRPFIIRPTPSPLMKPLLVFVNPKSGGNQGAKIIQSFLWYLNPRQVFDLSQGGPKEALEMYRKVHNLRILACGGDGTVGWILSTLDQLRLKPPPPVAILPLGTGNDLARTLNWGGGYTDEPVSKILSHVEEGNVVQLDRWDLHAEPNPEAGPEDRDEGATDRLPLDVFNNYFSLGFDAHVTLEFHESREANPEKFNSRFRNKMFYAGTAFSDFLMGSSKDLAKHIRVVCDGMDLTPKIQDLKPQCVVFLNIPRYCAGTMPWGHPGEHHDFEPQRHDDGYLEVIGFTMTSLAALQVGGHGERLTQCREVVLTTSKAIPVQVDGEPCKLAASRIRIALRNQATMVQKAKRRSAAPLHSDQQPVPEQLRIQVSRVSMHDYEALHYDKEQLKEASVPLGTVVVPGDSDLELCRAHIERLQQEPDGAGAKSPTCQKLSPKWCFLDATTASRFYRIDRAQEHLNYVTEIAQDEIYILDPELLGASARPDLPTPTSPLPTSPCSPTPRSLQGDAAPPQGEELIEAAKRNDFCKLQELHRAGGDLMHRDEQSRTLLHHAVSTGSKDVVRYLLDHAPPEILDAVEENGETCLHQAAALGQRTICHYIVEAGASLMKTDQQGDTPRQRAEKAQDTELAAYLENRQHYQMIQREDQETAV

DGKα, sequence (P23743 whole entry): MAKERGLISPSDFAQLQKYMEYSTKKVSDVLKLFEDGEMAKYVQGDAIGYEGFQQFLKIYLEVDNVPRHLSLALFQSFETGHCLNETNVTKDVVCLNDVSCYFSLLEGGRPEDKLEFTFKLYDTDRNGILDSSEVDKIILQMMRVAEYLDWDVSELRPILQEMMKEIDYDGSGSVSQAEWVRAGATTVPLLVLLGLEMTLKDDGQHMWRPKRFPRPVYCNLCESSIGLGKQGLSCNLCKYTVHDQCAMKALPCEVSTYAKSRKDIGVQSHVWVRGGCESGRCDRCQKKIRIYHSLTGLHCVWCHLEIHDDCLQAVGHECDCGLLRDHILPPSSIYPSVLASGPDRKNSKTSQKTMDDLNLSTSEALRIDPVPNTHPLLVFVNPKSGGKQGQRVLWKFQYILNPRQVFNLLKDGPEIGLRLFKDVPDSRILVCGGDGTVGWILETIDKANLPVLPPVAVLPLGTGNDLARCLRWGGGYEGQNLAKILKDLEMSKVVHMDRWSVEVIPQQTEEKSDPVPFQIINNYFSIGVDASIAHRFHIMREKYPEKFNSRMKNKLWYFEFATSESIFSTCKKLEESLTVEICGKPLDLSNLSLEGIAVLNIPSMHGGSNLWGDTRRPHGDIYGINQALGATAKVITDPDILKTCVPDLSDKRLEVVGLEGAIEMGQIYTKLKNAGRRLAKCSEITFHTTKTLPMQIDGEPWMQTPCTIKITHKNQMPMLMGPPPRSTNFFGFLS

Row | Structure (SMILES) | IC50 (DGKα) | IC50 (DGKζ)
1 | Cc1nc2c(N3C[C@@H](C)N([C@H](c4ccc(C(F)F)c(F)c4)C(C)C)C[C@@H]3C)nc(=O)n(C)c2n1C[C@@H]1CCCO1 [Example 55, 6-((2S,5R)-4-((S)-1-(4-(Difluoromethyl)-3-fluorophenyl)-2-methylpropyl)-2,5-dimethylpiperazin-1-yl)-3,8-dimethyl-9-(((S)-tetrahydrofuran-2-yl)methyl)-3,9-dihydro-2H-purin-2-one] | ≤ 10 nM | ≤ 10 nM
2 | CC[C@@H]1CN(c2nc(=O)n(C)c3c2nc(C)n3C[C@@H]2CCCO2)[C@@H](C)CN1C(c1ccc(C(F)(F)F)cc1)C1CC(F)(F)C1 (stereo partly drawn) [Example 38, 6-((2S,5R)-4-((3,3-Difluorocyclobutyl)(4-(trifluoromethyl)phenyl)methyl)-5-ethyl-2-methylpiperazin-1-yl)-3,8-dimethyl-9-(((S)-tetrahydrofuran-2-yl)methyl)-3,9-dihydro-2H-purin-2-one] | ≤ 10 nM | ≤ 10 nM
3 | Cc1nc2c(N3C[C@@H](C)N(C(c4ccc(F)cc4)c4ccc(F)cc4)C[C@@H]3C)cc(=O)n(C)c2n1C[C@@H]1CCCO1 [Example 11, 7-((2S,5R)-4-(Bis(4-fluorophenyl)methyl)-2,5-dimethylpiperazin-1-yl)-2,4-dimethyl-3-(((S)-tetrahydrofuran-2-yl)methyl)-3,4-dihydro-5H-imidazo[4,5-b]pyridin-5-one] | ≤ 10 nM | ≤ 10 nM
4 | CC[C@@H]1CN(c2nc(=O)[nH]c3c2nc(C)n3C[C@@H]2CCCO2)[C@@H](C)CN1C(c1ccc(F)cc1)c1ccc(F)cc1 [Example 4, 6-((2S,5R)-4-(Bis(4-fluorophenyl)methyl)-5-ethyl-2-methylpiperazin-1-yl)-8-methyl-9-(((S)-tetrahydrofuran-2-yl)methyl)-3,9-dihydro-2H-purin-2-one] | ≤ 10 nM | ≤ 10 nM
5 | C[C@@H]1CN(c2nc(=O)n(C)c3c2ncn3CC2(O)CCCC2)[C@@H](C)CN1C(c1ccc(Cl)cc1)C1CC(F)(F)C1 (single isomer, unassigned) [Example 66] | ≤ 10 nM | ≤ 10 nM
6 | CC(C)CC(c1ccc(Cl)cc1)N1C[C@H](C)N(c2nc(=O)n(C)c3c2ncn3C[C@H]2OCC[C@@H]2O)C[C@H]1C (single isomer, unassigned) [Example 19] | ≤ 10 nM | ≤ 10 nM
7 | CC[C@@H]1CN(c2nc(=O)n(C)c3c2nc(C)n3C[C@H]2OCC[C@H]2O)[C@@H](C)CN1[C@@H](CC)c1ccc(C(F)(F)F)cc1 [Example 71, 6-((2S,5R)-5-Ethyl-2-methyl-4-((S)-1-(4-(trifluoromethyl)phenyl)propyl)piperazin-1-yl)-9-(((2R,3R)-3-hydroxytetrahydrofuran-2-yl)methyl)-3,8-dimethyl-3,9-dihydro-2H-purin-2-one] | ≤ 10 nM | ≤ 10 nM

More lines, now with the values ahead:

Row | IC50 (DGKα) | IC50 (DGKζ) | Structure (SMILES)
8 | ≤ 10 nM | ≤ 10 nM | CC[C@@H]1CN(c2nc(=O)n(C)c3c2nc(C)n3C[C@@H]2CCCO2)[C@@H](C)CN1[C@H](C)c1ccc(C(F)(F)F)cc1 [Example 62, 6-((2S,5R)-5-ethyl-2-methyl-4-((R)-1-(4-(trifluoromethyl)phenyl)ethyl)piperazin-1-yl)-3,8-dimethyl-9-(((S)-tetrahydrofuran-2-yl)methyl)-3,9-dihydro-2H-purin-2-one]
9 | ≤ 10 nM | ≤ 10 nM | Cc1nc2c(N3C[C@@H](C)N([C@@H](c4ccc(C(F)(F)F)cc4)C(C)C)C[C@@H]3C)nc(=O)n(C)c2n1C[C@@H]1CCCO1 [Example 54, 6-((2S,5R)-2,5-dimethyl-4-((R)-2-methyl-1-(4-(trifluoromethyl)phenyl)propyl)piperazin-1-yl)-3,8-dimethyl-9-(((S)-tetrahydrofuran-2-yl)methyl)-3,9-dihydro-2H-purin-2-one]
10 | ≤ 10 nM | ≤ 100 nM | CC[C@@H]1CN(c2nc(=O)n(C)c3c2nnn3C[C@H]2CCCO2)[C@@H](C)CN1[C@H](c1ccc(Cl)cc1)[C@@H]1CC1(F)F [Example 22, 7-((2S,5R)-4-((S)-(4-Chlorophenyl)((S)-2,2-difluorocyclopropyl)methyl)-5-ethyl-2-methylpiperazin-1-yl)-4-methyl-3-(((R)-tetrahydrofuran-2-yl)methyl)-3,4-dihydro-5H-[1,2,3]triazolo[4,5-d]pyrimidin-5-one]
